The values that follow come from PubChem BioAssay (NCI).

Among the test systems are HL-60(TB) leukemia; MDA-MB-435; CCRF-CEM leukemia; K-562 leukemia; IGROV1 ovarian; KM12 colon; T-47D breast; COLO 205 colon; SF-295 CNS; SK-MEL-5 melanoma.
Common to all, as to experiment: NCI-60 cell line screen, 48 h

Structures are written as SMILES. Several values for one entry are separate records, joined by “and”; a condition that tells them apart may be missing. Identical values can stand only once.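 Assay format: 96-well plates, 48-hour exposure. GI50 is the concentration that inhibits growth by half. TGI denotes the concentration required for complete inhibition of growth.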

As for `COc1ccc(-c2coc3cc(OC)cc(O)c3c2=O)cc1`, the TGI in the assay on HL-60(TB) leukemia, with MDA-MB-435, with CCRF-CEM leukemia, with K-562 leukemia, with IGROV1 ovarian and in the assay on KM12 colon was more than 100 µM each time. Further, the TGI with T-47D breast, in the assay with COLO 205 colon, in the assay on SF-295 CNS and in the assay on SK-MEL-5 melanoma was more than 100 µM throughout.
Take `COc1ccc(/C=C/C(=O)c2ccc(Nc3ccnc4cc(Cl)ccc34)cc2)cc1`: the TGI in the assay with HL-60(TB) leukemia is more than 35 µM; in the assay on MDA-MB-435, more than 100 µM; in the assay with CCRF-CEM leukemia, more than 100 µM; in the assay on K-562 leukemia, more than 54 µM; in the assay with IGROV1 ovarian, more than 100 µM; in the assay on KM12 colon it was more than 100 µM. In addition, the TGI with T-47D breast, with COLO 205 colon, in the assay with SF-295 CNS and in the assay with SK-MEL-5 melanoma was more than 100 µM throughout. For the same molecule, the GI50 is 65.6 µM in the assay on MDA-MB-435; 5.64 µM with CCRF-CEM leukemia; 4.15 µM in the assay with K-562 leukemia; more than 100 µM with IGROV1 ovarian; more than 79.4 µM in the assay on KM12 colon; more than 100 µM with T-47D breast. In addition, the GI50 in the assay with COLO 205 colon was 70.2 µM; in the assay with SF-295 CNS it was more than 100 µM; in the assay with SK-MEL-5 melanoma, 21.6 µM.
As to `COc1ccc(CC2C3=C(CCCC3)CCN2C)cc1` (centres undefined), the TGI in the assay on HL-60(TB) leukemia, with MDA-MB-435, in the assay on CCRF-CEM leukemia, in the assay on K-562 leukemia, in the assay with IGROV1 ovarian and with KM12 colon was more than 100 µM in each case. For the same molecule, the TGI in the assay with T-47D breast, in the assay on COLO 205 colon, with SF-295 CNS and with SK-MEL-5 melanoma was more than 100 µM each time.
As for `O=[N+]([O-])c1ccc(-c2cn(-c3ccc(Cl)cc3)cn2)cc1`, the TGI with HL-60(TB) leukemia, in the assay with MDA-MB-435, with CCRF-CEM leukemia, with K-562 leukemia, in the assay on IGROV1 ovarian and in the assay on KM12 colon was more than 100 µM in each case. In addition, the TGI in the assay on T-47D breast is more than 100 µM; in the assay on COLO 205 colon it was more than 100 µM; in the assay on SF-295 CNS, 36.9 µM; in the assay on SK-MEL-5 melanoma, more than 100 µM.
Consider `C=C1N(C)c2ccc(Cl)cc2C1(C)C`, for which the GI50 with HL-60(TB) leukemia is 2.33 µM; with MDA-MB-435, 3.7 µM; in the assay with CCRF-CEM leukemia, 12.9 µM; in the assay on K-562 leukemia, 3.75 µM; in the assay on IGROV1 ovarian, 8.35 µM; with KM12 colon, 3.95 µM. In addition, the GI50 was 3.54 µM with T-47D breast, 2.1 µM in the assay with COLO 205 colon, 4.17 µM in the assay on SF-295 CNS and 4.32 µM in the assay with SK-MEL-5 melanoma. The TGI was 8.85 µM in the assay with HL-60(TB) leukemia; 23.5 µM in the assay on MDA-MB-435; 69.2 µM in the assay with CCRF-CEM leukemia; more than 100 µM in the assay on K-562 leukemia; 65.4 µM with IGROV1 ovarian; 13.7 µM in the assay with KM12 colon. For the same molecule, the TGI in the assay on T-47D breast was more than 100 µM; in the assay on COLO 205 colon, 4.36 µM; in the assay on SF-295 CNS it was 38.5 µM; in the assay on SK-MEL-5 melanoma, 15 µM.
`CC(=O)OCC1OC(n2c(-c3ccccc3)c(C)c(C)c(C#N)c2=S)C(OC(C)=O)C(OC(C)=O)C1OC(C)=O` (centres undefined): the TGI in the assay with HL-60(TB) leukemia, in the assay with MDA-MB-435, with CCRF-CEM leukemia, in the assay on K-562 leukemia, in the assay on IGROV1 ovarian and in the assay on KM12 colon was more than 100 µM throughout. Also, the TGI is more than 100 µM in the assay with T-47D breast; more than 100 µM with COLO 205 colon; > 50 µM and 66.4 µM with SF-295 CNS; more than 100 µM in the assay on SK-MEL-5 melanoma. For the same molecule, the GI50 in the assay on CCRF-CEM leukemia was 49.2 µM and > 100 µM; in the assay on K-562 leukemia, 24.8 µM and > 100 µM.
In the case of `Nc1nc2c(c3cnccc13)C(c1cccc(Cl)c1)Cc1cnccc1-2` (centres undefined), the GI50 is 0.278 µM with HL-60(TB) leukemia; 0.21 µM with MDA-MB-435; 0.429 µM with CCRF-CEM leukemia; 0.338 µM with K-562 leukemia; 0.644 µM with IGROV1 ovarian; 0.409 µM in the assay on KM12 colon. Further, the GI50 with T-47D breast is 0.384 µM; in the assay with COLO 205 colon, 0.296 µM; with SF-295 CNS, 0.273 µM; with SK-MEL-5 melanoma, 0.398 µM. Besides, the TGI was determined as 5.27 µM in the assay on HL-60(TB) leukemia; 1.46 µM in the assay on MDA-MB-435; 19.5 µM in the assay on CCRF-CEM leukemia; 28.7 µM with K-562 leukemia; 15.3 µM with IGROV1 ovarian; 12.2 µM in the assay on KM12 colon. Besides, the TGI in the assay on T-47D breast came to 25.2 µM; in the assay with COLO 205 colon it was 0.872 µM; in the assay with SF-295 CNS, 0.914 µM; in the assay with SK-MEL-5 melanoma, 2.04 µM.
As to `CC(=O)c1ccc(NCN2C(=O)c3ccccc3C2=O)cc1`, the TGI in the assay on HL-60(TB) leukemia, with MDA-MB-435, in the assay on CCRF-CEM leukemia, in the assay with K-562 leukemia, in the assay on IGROV1 ovarian and in the assay on KM12 colon was more than 100 µM in each case. In addition, the TGI in the assay on T-47D breast, in the assay with COLO 205 colon, in the assay with SF-295 CNS and in the assay on SK-MEL-5 melanoma was more than 100 µM throughout.
As for `Cn1c(=S)sc2nc3ccccc3n2c1=S`, the TGI was 5.07 µM in the assay on HL-60(TB) leukemia; 35.5 µM in the assay on MDA-MB-435; 43.7 µM in the assay with CCRF-CEM leukemia; 21.5 µM in the assay with K-562 leukemia; 30.9 µM with IGROV1 ovarian; 27.4 µM in the assay on KM12 colon. For the same molecule, the TGI in the assay with T-47D breast came to 39.6 µM; in the assay with COLO 205 colon, 25.9 µM; with SF-295 CNS, 50.6 µM; with SK-MEL-5 melanoma, 27 µM.
Take `NC[C@@](O)(c1ccc(Cl)cc1)c1ccc(-c2cn[nH]c2)cc1`: the GI50 was 1.7 µM in the assay on HL-60(TB) leukemia; 1.81 µM with MDA-MB-435; 2.41 µM and 0.824 µM with CCRF-CEM leukemia; 1.69 µM in the assay on K-562 leukemia; 0.43 µM and 0.272 µM with IGROV1 ovarian; 3.44 µM and 3.48 µM in the assay on KM12 colon. In addition, the GI50 was 1.42 µM and 1.23 µM in the assay with T-47D breast; 1.48 µM with COLO 205 colon; 0.969 µM in the assay on SF-295 CNS. Besides, the TGI in the assay on HL-60(TB) leukemia was 4.13 µM; in the assay with MDA-MB-435, 3.61 µM; with K-562 leukemia, 3.53 µM; in the assay with IGROV1 ovarian it was 1.46 µM; in the assay on KM12 colon it was more than 100 µM; in the assay on T-47D breast, 2.87 µM and 2.83 µM. Also, the TGI with COLO 205 colon is 3.18 µM; in the assay with SF-295 CNS, 4.62 µM; in the assay with SK-MEL-5 melanoma, more than 100 µM.
Turning to `C[n+]1ccc(-c2c3nc(c(-c4ccc5c(ccc[n+]5C)c4)c4ccc([nH]4)c(-c4cc[n+](C)cc4)c4nc(c(-c5ccc6c(ccc[n+]6C)c5)c5ccc2[nH]5)C=C4)C=C3)cc1`, the GI50 was 9.19 µM in the assay with HL-60(TB) leukemia; 12.9 µM in the assay on MDA-MB-435; more than 50 µM with CCRF-CEM leukemia; 31.4 µM with K-562 leukemia; more than 50 µM with IGROV1 ovarian; 23.1 µM with KM12 colon. Also, the GI50 with T-47D breast is 12.4 µM; in the assay with COLO 205 colon it was 23.1 µM; in the assay with SF-295 CNS, 40.5 µM; in the assay on SK-MEL-5 melanoma, 17.6 µM. Further, the TGI in the assay on HL-60(TB) leukemia was 17.2 µM; in the assay with MDA-MB-435, 36.9 µM; with CCRF-CEM leukemia, more than 50 µM; with K-562 leukemia, more than 50 µM; in the assay with IGROV1 ovarian, more than 50 µM; in the assay with KM12 colon, more than 50 µM. Besides, the TGI in the assay with T-47D breast is 48.7 µM; in the assay with COLO 205 colon it was more than 50 µM; in the assay with SF-295 CNS it was more than 50 µM; in the assay with SK-MEL-5 melanoma, more than 50 µM.
As to `O=C(Nc1ccc(Br)cc1F)c1cc(Br)ccc1O`, the GI50 in the assay on HL-60(TB) leukemia was 0.59 µM; in the assay with MDA-MB-435, 0.846 µM; with CCRF-CEM leukemia, 2.03 µM; in the assay with K-562 leukemia it was 0.453 µM; with IGROV1 ovarian, 0.4 µM; with KM12 colon, 1.93 µM. The GI50 in the assay on T-47D breast is 0.457 µM; in the assay on COLO 205 colon it was 2.95 µM; with SF-295 CNS, 1.58 µM; in the assay with SK-MEL-5 melanoma it was 0.289 µM. Also, the TGI was 3.59 µM with HL-60(TB) leukemia; 5.63 µM in the assay with MDA-MB-435; more than 44.4 µM in the assay with CCRF-CEM leukemia; more than 35.9 µM with K-562 leukemia; 15.3 µM with IGROV1 ovarian; 5.66 µM with KM12 colon. The TGI in the assay with T-47D breast was found to be 6.87 µM; with COLO 205 colon, 9.11 µM; in the assay on SF-295 CNS, 3.56 µM; in the assay on SK-MEL-5 melanoma, 1.19 µM.
For the molecule `Cc1ccc(S(=O)(=O)n2cc(-c3nnnn3-c3ccc(Cl)cc3)c(=O)c3ccccc32)cc1`, the GI50 is 12.9 µM in the assay on HL-60(TB) leukemia; more than 100 µM with MDA-MB-435; 43.4 µM with CCRF-CEM leukemia; 20.1 µM in the assay with K-562 leukemia; more than 100 µM in the assay on IGROV1 ovarian; more than 100 µM with KM12 colon. For the same molecule, the GI50 in the assay with T-47D breast is 57.9 µM; in the assay on COLO 205 colon, 93 µM; in the assay on SF-295 CNS, 52.9 µM; in the assay with SK-MEL-5 melanoma it was 70.6 µM. Also, the TGI is 31 µM in the assay on HL-60(TB) leukemia; more than 100 µM in the assay with MDA-MB-435; more than 100 µM with CCRF-CEM leukemia; more than 100 µM in the assay on K-562 leukemia; more than 100 µM with IGROV1 ovarian; more than 100 µM with KM12 colon. For the same molecule, the TGI with T-47D breast, in the assay with COLO 205 colon, in the assay on SF-295 CNS and with SK-MEL-5 melanoma was more than 100 µM in each case.
On to `Cc1nc2cc(N)c(Cl)cc2[nH]1`, for which the TGI in the assay with HL-60(TB) leukemia, with MDA-MB-435, in the assay on CCRF-CEM leukemia, in the assay on K-562 leukemia, in the assay with IGROV1 ovarian and in the assay on KM12 colon was more than 100 µM each time. Also, the TGI in the assay with T-47D breast, in the assay with COLO 205 colon, in the assay on SF-295 CNS and with SK-MEL-5 melanoma was more than 100 µM throughout.
